Results reported in patent publication US11959083B2, “Immunosuppression-reverting oligonucleotides inhibiting the expression of CD39” (Secarna Pharmaceuticals GmbH & Co. KG, priority 2016, dated 2024).
l = locked nucleic acid (LNA); d = 2'-deoxy (DNA)

Columns and labels:
human CD8+ T cells = experiment: Proliferation and absolute cell numbers of human CD8+ T cells in presence or absence of extracellular ATP; format: cell-based; conditions: 5 μM oligonucleotide 5 days or 20 μM ARL67156 24 h
Procedure: FIG. 12A-12C depict human CD8^+ T cells which were labelled with cell proliferation dye, activated with anti-CD3 and treated with 5 μM of the antisense oligonucleotide A04040H (black column) or the control oligonucleotide S6 (white column) for a total treatment time of 5 days. In the vehicle control (striped column), cells were activated with anti-CD3 only. Subsequently, 400 μM of ATP or vehicle were added to cells on day 3 and day 4 after start of oligonucleotide treatment. Furthermore, as additional control, the small molecular CD39-inhibitor ARL67156 trisodium salt was added at 20 μM to cells on day 4, for an incubation time of 24 h (checked column). On day 5 after start of oligonucleotide treatment, (FIG. 12A) CD39 protein expression, (FIG. 12B) proliferation and (FIG. 12C) absolute cell numbers of CD8^+ T cells were analyzed using Flow Cytometry. Depicted is the mean of triplicate wells+/−SD.
In cancer, ATP is released from tumor cells for example after cell death induced by chemotherapy or radiation therapy. Since the CD39-CD73 axis plays an important role for T cell function the effects of A04040H on T cell proliferation in the presence or absence of extracellular ATP were investigated. Human CD8^+ T cells were labelled with cell proliferation dye, activated with anti-CD3 and treated with 5 μM of the antisense oligonucleotide A04040H or the control oligonucleotide S6 for a total treatment time of 5 days. In the vehicle control, cells were activated with anti-CD3 only. Subsequently, 400 μM of ATP or vehicle were added to cells on day 3 and day 4 after start of oligonucleotide treatment. Furthermore, as additional control, the small molecular CD39-inhibitor ARL67156 trisodium salt was added at 20 μM to cells on day 4 for an incubation time of 24 h. On day 5 after start of oligonucleotide treatment, CD39 protein expression, proliferation, and absolute cell numbers of CD8^+ T cells were analyzed using Flow Cytometry.

hCD39 mRNA [1] = experiment: hCD39 mRNA knockdown efficacy screen in A-172 cells (single dose, gymnotic delivery, QuantiGene Singleplex); format: cell-based, human; conditions: 10 μM, 3 days, third screening round
Procedure, shortened: (§1)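 Antisense oligonucleotides given once at 10 μM without transfection reagent (gymnotic) to HDLM-2 or A-172 cells for 3 days. hCD39 mRNA measured by QuantiGene Singleplex, normalized to HPRT1 and expressed relative to untreated cells; triplicate means.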

hCD39 mRNA [2] = experiment: hCD39 mRNA knockdown efficacy screen in HDLM-2 cells (single dose, gymnotic delivery, QuantiGene Singleplex); format: cell-based, human; conditions: 10 μM, 3 days, third screening round
Procedure, shortened: as §1

hCD39 protein = hCD39 protein expression in primary human CD8+ and CD4+ T cells after oligonucleotide removal (flow cytometry); format: cell-based; conditions: 10 μM for six days with anti-CD3, compared to untreated control cells
Procedure: Thereafter, oligonucleotides and anti-CD3 were removed and hCD39 protein expression was analyzed by flow cytometry three, six, and eleven days after oligonucleotide removal. CD39 protein expression is depicted as mean fluorescence intensity (MFI) and was calculated by subtracting the MFI of the unspecific isotype control from the MFI of CD39. Depicted is the mean of duplicate wells+/−SD.
A04040H had shown very potent activity in suppressing hCD39 expression on mRNA- and protein-level in human cancer cell lines. In the next step, its activity in primary human T cells was investigated. Furthermore, the persistence of the effects after antisense oligonucleotide removal was examined. Therefore, CD8^+ and CD4^+ T cells were isolated from peripheral blood and activated for a total treatment time of six days with anti-CD3 in the presence of 10 μM of the hCD39 specific antisense oligonucleotide A04040H (black column) or the control oligonucleotide S6 (white column), which is not complementary to any human mRNA. […] Thereafter, oligonucleotides were removed and hCD39 protein expression was analyzed three, six, and eleven days after oligonucleotide removal by flow cytometry (FIG. 9).

mCD39 mRNA [3] = experiment: In vivo mCD39 mRNA knockdown in spleens of C57BL/6 mice; set-up: species or system mouse; conditions: day 26, compared to neg 1 treated mice
Procedure: FIGS. 15A and 15B depict CD39 mRNA expression levels in spleens from C57BL/6 mice treated by subcutaneous injections of either A04011MR or the negative control oligonucleotide neg1 at doses of 25 mg/kg or 10 mg/kg on days 1, 2, 3, 4, 5, 9, 12, 16, and 19 (5 mice/group). Expression values were normalized to expression values of the housekeeping gene HPRT1.
The potent mCD39 ASO A04011MR was selected and its in vivo knockdown capacity in C57BL/6 mice was analyzed. C57BL/6 mice were treated by subcutaneous injections of either A04011MR or the negative control oligonucleotide neg1 at doses of 25 mg/kg or 10 mg/kg on days 1, 2, 3, 4, 5, 9, 12, 16, and 19 (5 mice/group). Seven days after the last ASO treatment (day 26), mice were sacrificed and spleens were sampled for CD39 mRNA analysis. The results depicted in FIG. 15 show CD39 mRNA expression levels in spleens of A04011MR or neg1-treated mice.

mCD39 mRNA [4] = experiment: mCD39 mRNA knockdown efficacy screen in A20 cells (single dose, gymnotic delivery, QuantiGene Singleplex); format: cell-based, mouse; conditions: 10 μM, three days, normalized to HPRT1
Procedure: FIG. 14-1 and 14-2 show mCD39 mRNA knockdown efficacy of mCD39 antisense oligonucleotides in the murine cancer cell line A20 (mouse B cell lymphoma). A20 cells were treated with a single dose of 10 μM of the respective antisense oligonucleotide. As negative control, cells were treated with neg1, an antisense oligonucleotide having the sequence CGTTTAGGCTATGTACTT (SEQ ID NO:99). Residual mCD39 mRNA expression relative to untreated cells is depicted. Expression values were normalized to expression of the housekeeping gene HPRT1.
In order to analyze the efficacy of mCD39 antisense oligonucleotides with regard to the knockdown of mCD39 mRNA expression in a cancer cell line, A20 (mouse B cell lymphoma, ATCC) cells were treated with a single dose (concentration: 10 μM without addition of any transfection reagent; this process is called gymnotic delivery) of the respective antisense oligonucleotide as indicated in FIG. 14. As control, cells were treated with neg1, an antisense oligonucleotide having the sequence CGTTTAGGCTATGTACTT (SEQ ID NO:99). mCD39 and HPRT1 mRNA expression was analyzed after three days using the QuantiGene Singleplex assay (Affymetrix) and mCD39 expression values were normalized to HPRT1 expression values.

mCD39 protein = experiment: In vivo mCD39 protein knockdown in tumor-infiltrating immune cells, syngeneic MC38 mouse tumor model; conditions: MC38 tumor-bearing C57BL/6 mice, 20, 10, 5 mg/kg subcutaneous, day 16, compared to the controls
Procedure: FIGS. 16A and 16B show CD39 protein expression on tumor infiltrating regulatory T cells (Tregs) (FIG. 16A) and tumor associated macrophages (TAMs) (FIG. 16B) from oligonucleotide-treated mice in relation to tumors of untreated mice.
The potent mCD39 antisense oligonucleotide A04011MR was selected and its in vivo knockdown capacity in a subcutaneous syngeneic murine tumor model was analyzed. Therefore, 5×10^5 MC38 wt tumor cells were injected subcutaneously into C57BL/6 mice. Once tumors reached sizes between 50-70 mm^3, mice were treated systemically by subcutaneous injections with different doses of A04011MR (20 mg/kg; 10 mg/kg; 5 mg/kg) or with the negative control oligonucleotide neg1 (20 mg/kg) on days 1, 2, 3, 4, 5, 9, and 12 (4 mice/per group). As additional control, MC-38 tumor-bearing mice were left untreated. Four days after the last treatment with antisense oligonucleotide (day 16), tumors were isolated in order to analyze CD39 protein expression in subtypes of tumor-infiltrating immune cells using flow cytometry. FIGS. 16A and 16B depict CD39 protein expression on tumor-infiltrating regulatory T cells (Tregs) (FIG. 16A) and tumor associated macrophages (TAMs) (FIG. 16B) from oligonucleotide-treated mice in relation to tumors of untreated mice.

hCD39 = target: T1, hCD39 (Homo sapiens, UniProt P49961); experiment: ATP degradation in JIYOYE cells after hCD39 knockdown (ATP Bioluminescence Assay); format: cell-based; conditions: 5 μM oligonucleotide 6 days or 20 μM ARL67156 1 h; 2 μM ATP added
T1 construct: endogenous in cells; host or cells: JIYOYE cells
T1 sequence (P49961 1-510): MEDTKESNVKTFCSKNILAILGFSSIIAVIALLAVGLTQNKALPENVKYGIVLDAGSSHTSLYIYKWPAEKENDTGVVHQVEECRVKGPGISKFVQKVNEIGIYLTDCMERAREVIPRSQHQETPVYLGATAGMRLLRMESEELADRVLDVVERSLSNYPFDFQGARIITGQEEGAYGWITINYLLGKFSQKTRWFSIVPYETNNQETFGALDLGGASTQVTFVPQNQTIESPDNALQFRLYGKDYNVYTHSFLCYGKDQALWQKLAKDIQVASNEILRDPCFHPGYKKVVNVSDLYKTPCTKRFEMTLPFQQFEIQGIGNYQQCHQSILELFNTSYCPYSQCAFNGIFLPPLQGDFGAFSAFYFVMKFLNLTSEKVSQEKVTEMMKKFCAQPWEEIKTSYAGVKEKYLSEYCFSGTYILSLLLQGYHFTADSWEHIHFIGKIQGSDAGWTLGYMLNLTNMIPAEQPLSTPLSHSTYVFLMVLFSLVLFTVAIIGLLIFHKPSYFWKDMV
Procedure: FIG. 10A-10C depict effects of hCD39 knockdown on viability and ATP concentration in JIYOYE cells. JIYOYE cells were treated with the indicated antisense oligonucleotide A04040H (SEQ ID No.3) or neg1 for 6 days in total at 5 μM. Medium was replaced with fresh oligonucleotide-containing medium after 3 days and hCD39 protein knockdown efficacy was analyzed on day 6 by flow cytometry. Residual hCD39 expression and viability of oligonucleotide-treated cells is depicted compared to untreated cells (FIG. 10A-10B). After 6 days, 20 μM of the CD39 small molecular inhibitor ARL67156 trisodium salt was added to no ASO treated cells and incubated for 1 h at 37° C. Then, 2 μM of ATP was added to cells or cell culture medium without cells from each condition and ATP concentration of cell supernatants or cell culture medium was determined after 30 min using the ATP Bioluminescence Assay Kit (Roche) (FIG. 10C).
Adenosine is one major immunosuppressive molecule generated during ATP degradation by hCD39. ATP can be detected by an ATP Bioluminescence Assay (ATP Bioluminescence Assay Kit CLS II; Roche). JIYOYE cells were treated with 5 μM antisense oligonucleotide A04040H (SEQ ID No. 3) or the negative control oligonucleotide neg1 for 6 days (3+3). After 3 days, RPMI-1640 medium was replaced with fresh RPMI-1640 medium containing 5 μM of oligonucleotide. Protein knockdown efficacy (FIG. 10A) and viability (FIG. 10B) were analyzed after 6 days by flow cytometry. […] The same day, cells that were not treated with any antisense oligonucleotide were incubated for 1 hr at 37° C. with 20 μM of the CD39 small molecular inhibitor ARL67156 trisodium salt (TOCRIS). Then, 2 μM of ATP was added to cells or cell culture medium without cells derived from each condition and ATP concentration was measured in the cell supernatants or in cell culture medium after 30 min. […] Table 14 presents the effect of hCD39 knockdown on relative ATP levels in the cell culture supernatants of JIYOYE cells: […]

[5] = absence of extracellular ATP, vs vehicle
[6] = supplementation with 400 μM of ATP

Row | Molecule | absolute cell numbers of CD8+ T cells (human CD8+ T cells; [5]) | proliferation of CD8+ T cells (human CD8+ T cells; [5]) | absolute numbers of CD8+ T cells (human CD8+ T cells; [6]) | proliferation of CD8+ T cells (human CD8+ T cells; [6]) | Residual hCD39 mRNA expression relative to untreated cells (set as 1) (hCD39 mRNA [1]) | Residual hCD39 mRNA expression relative to untreated cells (set as 1) (hCD39 mRNA [2]) | hCD39 protein expression (MFI) after oligonucleotide removal (hCD39 protein) | mCD39 mRNA levels in spleens (mCD39 mRNA [3]; 10 mg/kg subcutaneous) | mCD39 mRNA levels in spleens (mCD39 mRNA [3]; 25 mg/kg subcutaneous) | Relative mCD39 mRNA expression (compared to non-treated cells) (mCD39 mRNA [4]) | mCD39 protein expression on tumor associated macrophages (TAMs) (mCD39 protein) | mCD39 protein expression on tumor-infiltrating regulatory T cells (Tregs) (mCD39 protein) | Relative ATP levels in supernatants of JIYOYE cells 30 minutes after addition of ATP (vs. Medium control) (hCD39)
1 | +T*+C*+T*A*T*C*G*T*G*A*T*G*T*T*+T*+C*+T (antisense TCTATCGTGATGTTTCT; sugars from the 5' end l3 d11 l3, all phosphorothioate, methylation of C not given here) [S6] | no differences | no differences | significantly diminished | reduced proliferation | 0.95 | 0.95 | no inhibitory effect | – | – | – | – | – | –
2 | +A*+G*+T*A*A*T*C*C*A*C*C*C*A*+T*+A*+G (antisense AGTAATCCACCCATAG; sugars from the 5' end l3 d10 l3, all phosphorothioate, methylation of C not given here) [A04011MR] | – | – | – | – | – | – | – | significantly reduced | significantly reduced | 0.01 | dose-dependently suppressed | dose-dependently suppressed | –
3 | CCN(CC)c1ncnc2c1ncn2[C@@H]1O[C@H](COP(=O)(O)OP(=O)(O)C(Br)(Br)P(=O)(O)O)[C@@H](O)[C@H]1O [ARL67156] | no differences | no differences | significantly diminished | reduced proliferation | – | – | – | – | – | – | – | – | 0.38
